In assay [1] the target is Sphingosine 1-phosphate receptor 2 (Homo sapiens, UniProt O95136). Briefly: (§1) In Vitro Binding Assay: I. Master Stock SolutionUnless specified otherwise, the sample compounds were diluted in 100% anhydrous DMSO including all dilutions. The compounds were tested as the citrate salt (1 equivalent per molecule). If the sample compound is provided in a different solvent all master stock dilutions are performed in the specified solvent. All control wells contained identical solvent final concentrations as the sample compound wells.II. Compound Plate AssayThe sample compounds were transferred from a master stock solution into a daughter plate that was used in the assay. Each sample compound was diluted into an assay buffer (1×HBSS with 20 mM HEPES, 2.5 mM Probenecid, and 0.4% Free Fatty Acid BSA) at an appropriate concentration to obtain final specified concentrations.III. Antagonist Assay FormatUsing the EC80 values that were determined real-time, stimulated all pre-incubated sample compounds and reference antagonists (if applicable) were compared with the EC80 values of reference agonist. These were read for 180 seconds using the […] (This assay added reference agonist to respective wells-then fluorescences measurements were collected to calculate IC50 values).
Sphingosine 1-phosphate receptor 2, sequence (O95136 whole entry): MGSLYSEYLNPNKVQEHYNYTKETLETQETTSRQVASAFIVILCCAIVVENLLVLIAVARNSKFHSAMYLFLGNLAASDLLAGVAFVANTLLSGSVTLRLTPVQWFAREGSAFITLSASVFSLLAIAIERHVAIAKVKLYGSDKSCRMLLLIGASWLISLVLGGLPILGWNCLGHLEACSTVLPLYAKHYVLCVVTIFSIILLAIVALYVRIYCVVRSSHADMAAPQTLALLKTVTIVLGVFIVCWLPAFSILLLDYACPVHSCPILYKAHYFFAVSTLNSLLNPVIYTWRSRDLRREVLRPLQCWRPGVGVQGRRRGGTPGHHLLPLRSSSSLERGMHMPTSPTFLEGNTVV

Assay [2] concerns the target Sphingosine 1-phosphate receptor 5 (Homo sapiens, UniProt Q9H228). Described as §1.

Sphingosine 1-phosphate receptor 5, sequence (Q9H228 whole entry): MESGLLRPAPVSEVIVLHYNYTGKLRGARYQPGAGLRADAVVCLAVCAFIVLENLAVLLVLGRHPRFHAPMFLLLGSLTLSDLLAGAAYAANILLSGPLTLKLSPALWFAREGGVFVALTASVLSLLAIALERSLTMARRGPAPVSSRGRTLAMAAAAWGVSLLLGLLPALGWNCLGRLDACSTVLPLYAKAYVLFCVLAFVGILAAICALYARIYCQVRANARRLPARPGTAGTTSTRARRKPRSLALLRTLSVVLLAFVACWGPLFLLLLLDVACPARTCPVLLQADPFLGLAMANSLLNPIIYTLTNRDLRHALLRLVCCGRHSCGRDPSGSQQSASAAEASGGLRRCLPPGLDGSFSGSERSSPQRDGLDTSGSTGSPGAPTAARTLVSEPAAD

One may read the IC50 as the concentration at which inhibition is half-maximal. Turning to `Cc1nn(C)c2nc(N(CCCO)NC(=O)Nc3cc(Cl)nc(Cl)c3)cc(C(C)C)c12`, the concentration for half-maximal inhibition (IC50) in assay [1] was 19 nM; in assay [2], 12 nM.

With `C=CCN(NC(=O)Nc1cc(Cl)nc(Cl)c1)c1cc(C(C)C)c2c(C)nn(C)c2n1`, the concentration for half-maximal inhibition (IC50) in assay [1] is 52 nM; in assay [2], 110 nM.

(Values after ChEMBL document CHEMBL5726257, “Sphingosine 1-phosphate receptor antagonists” (2017).)
